Measured values as given in the NIST ThermoML archive (doi:10.1016/j.jct.2019.105880).
Numbers after ± are expanded uncertainties.

Experiment: wn = mass fraction of the nth substance listed
Settings: 100 kPa, Liquid; for viscosity: Falling or rolling sphere viscometry; for speed of sound: Frequency=3 MHz, Single path-length method; for mass density: Vibrating tube method

CCCO [propan-1-ol] + O
Settings | mass density [kg/m3] | speed of sound [m/s] | viscosity [mPa·s]
288.15 K, w1 = 0.1 | 985.245 ± 1.4 | 1564.4 ± 3.1 | 1.82 ± 0.14
288.15 K, w1 = 0.2 | 971.452 ± 1.6 | 1587.4 ± 2.5 | 2.723 ± 0.18
288.15 K, w1 = 0.3 | 954.251 ± 1.9 | 1533.5 ± 5.5 | 3.208 ± 0.2
288.15 K, w1 = 0.4 | 934.617 ± 2 | 1485.7 ± 5.2 | 3.575 ± 0.22
293.15 K, w1 = 0.1 | 983.869 ± 1.5 | 1570.1 ± 2.3 | 1.545 ± 0.12
293.15 K, w1 = 0.2 | 969.02 ± 1.7 | 1581.6 ± 3 | 2.232 ± 0.14
293.15 K, w1 = 0.3 | 950.883 ± 1.9 | 1526.5 ± 5.6 | 2.618 ± 0.16
293.15 K, w1 = 0.4 | 931.255 ± 2 | 1477.2 ± 5.3 | 2.92 ± 0.18
298.15 K, w1 = 0.1 | 982.336 ± 1.6 | 1574.3 ± 2 | 1.333 ± 0.095
298.15 K, w1 = 0.2 | 966.338 ± 1.8 | 1575.5 ± 3.4 | 1.852 ± 0.12
298.15 K, w1 = 0.3 | 948.039 ± 2 | 1519.6 ± 5.7 | 2.174 ± 0.14
298.15 K, w1 = 0.4 | 927.818 ± 2.1 | 1468 ± 5.5 | 2.436 ± 0.15
303.15 K, w1 = 0.1 | 980.428 ± 1.7 | 1577.4 ± 2.2 | 1.156 ± 0.081
303.15 K, w1 = 0.2 | 963.667 ± 1.8 | 1569.5 ± 3.8 | 1.567 ± 0.1
303.15 K, w1 = 0.3 | 945.132 ± 2 | 1512.6 ± 5.9 | 1.841 ± 0.11
303.15 K, w1 = 0.4 | 924.386 ± 2.1 | 1458.6 ± 5.8 | 2.056 ± 0.13

CC(C)O [propan-2-ol] + O
Settings | mass density, w1 = 0.1 [kg/m3] | mass density, w1 = 0.2 [kg/m3] | mass density, w1 = 0.3 [kg/m3] | speed of sound, w1 = 0.1 [m/s] | speed of sound, w1 = 0.2 [m/s] | speed of sound, w1 = 0.3 [m/s] | viscosity, w1 = 0.1 [mPa·s] | viscosity, w1 = 0.2 [mPa·s] | viscosity, w1 = 0.3 [mPa·s]
288.15 K | 983.401 ± 1.2 | 971.675 ± 1.5 | 954.62 ± 1.8 | 1573.7 ± 6.8 | 1638.6 ± 2.1 | 1586.9 ± 5.5 | 1.936 ± 0.16 | 3.087 ± 0.21 | 4.014 ± 0.26
293.15 K | 982.158 ± 1.3 | 969.345 ± 1.6 | 951.686 ± 1.8 | 1578.9 ± 5.5 | 1629.4 ± 2 | 1574.7 ± 5.8 | 1.633 ± 0.13 | 2.485 ± 0.17 | 3.172 ± 0.21
298.15 K | 980.642 ± 1.4 | 966.771 ± 1.7 | 948.106 ± 1.9 | 1582.9 ± 4.3 | 1620.2 ± 2.3 | 1562.8 ± 6.1 | 1.395 ± 0.11 | 2.045 ± 0.14 | 2.555 ± 0.16
303.15 K | 978.882 ± 1.5 | 964.199 ± 1.7 | 945.121 ± 1.9 | 1585.7 ± 3.2 | 1611 ± 2.7 | 1549.6 ± 6.5 | 1.208 ± 0.089 | 1.71 ± 0.11 | 2.105 ± 0.13
